Measurements reported in US20070248702A1, “Use of CB2 receptors agonists for the treatment of Huntington's disease” (priority 2004, published 2007).

Key:
[1] = tested on: rats with unilateral injections of malonate; assay: dopamine and DOPAC contents in caudate-putamen by HPLC, malonate rat model; format: in vivo; conditions: % of lesioned side over non-lesioned side, mean ± SEM; i.p. 30 min before and 2 h after malonate (ACEA 3 mg/kg, HU-308 5 mg/kg, CBD 5 mg/kg); 48 h
Procedure: (§1) Animals. Male Sprague-Dawley rats were housed in a room with controlled photoperiod (08:00-20:00 light) and temperature (23±1° C.). […] Each treatment group consisted of at least six animals.
(§2) Intrastriatal injection of malonate. Rats were injected stereotaxically (coordinates: +0.8 mm anterior, 2.9 mm lateral from the bregma, 4.5 mm ventral from the dura mater) into the left striatum with 2 M malonate in a volume of 1 μl and used for experimental analysis 48 h later.
(§3) Cannabinoid treatment. […] All compounds were prepared in Tween 80-saline solution (1:16 volume per volume). The volume dosage for i.p. administration was 2 ml/kg body weight. The doses used for each experiment were selected from the previous studies on the pharmacological properties of these compounds.
(§4) Animals were killed 46 hours after the second cannabinoid injection and their brains were rapidly removed and frozen in 2-methylbutane cooled in dry ice, and stored until evaluation of the degree of malonate-induced striatal injury.
(§5) Sample preparation. Brains coronal slices (around 500 μm thick) were made at levels containing the substantia nigra, the globus pallidus and the caudate-putamen, according to Palkovits M. and Brownstein J. (Maps and Guide to Microdissection of the Rat Brain. Elsevier, 1988). Subsequently, the three structures were dissected and homogenized in 20-40 volumes of cold 150 mM potassium phosphate buffer, pH 6.8. Each homogenate was distributed for the analysis of the contents of GABA or dopainine and its major metabolite, 3,4-dihydroxyphenylacetic acid (DOPAC), by High Performance Liquid Chromatography (HPLC) coupled to electrochemical detection, according to previously described methods (Romero J. et al., Brain Res. 694: 223-32, 1995; González S. et al., Life Sci. 65: 327-36, 1999). An aliquot of each homogenate was used to analyze protein concentration (Lowry O. H. et al., J. Biol. Chem. 193: 265-75, 1951).

[2] = tested on: mice treated with the neurotoxin MPTP; conditions: WO 03/064359; cited from earlier work
[3] = tested on: rats with unilateral injections of malonate; assay: GABA contents in basal ganglia by HPLC, malonate rat model of Huntington's disease; format: in vivo; conditions: for GABA contents Globus pallidus / GABA contents Substantia nigra: % of lesioned side over non-lesioned side, mean ± SEM, i.p. 30 min before and 2 h after malonate (ACEA 3 mg/kg, HU-308 5 mg/kg, CBD 5 mg/kg), 48 h; for malonate-induced GABA loss in the striatum (caudate-putamen): FIG. 1, result in words, HU-308 5 mg/kg; for malonate-induced GABA loss in the striatum (caudate-putamen) / neurochemical deficits induced by malonate in the caudate-putamen and other basal ganglia structures: CBD 5 mg/kg i.p.; for neurochemical deficits induced by malonate in the caudate-putamen and other basal ganglia structures: Table 1 and FIG. 1, result in words, ACEA 3 mg/kg
Procedure: as §1, §2, §3, §4, §5
Analysis of GABA contents. This analysis was carried out by HPLC with electrochemical detection according to the procedure described by Smith S, and Sharp T. (J. Chromat. 652: 228-33, 1994). The aliquot of the homogenate used for the direct measurement of GABA content was diluted 1:2 with 0.4 N perchloric acid containing 0.4 mM sodium disulfite, 0.90 mM EDTA and 10 μg/ml β-aminobutyrate (BABA) as an internal standard. Following, samples were centrifuged for 3 min (15,000 g) and 50 μl of each supernatant removed and neutralized with 100 μl of 0.1 N NaOH. Samples were stored at 4° C. until analysis. This was performed by derivatization of GABA and BABA (β-aminobutyrate) through the addition of 15 μl of o-phthaldehyde (OPA)-sulfite solution (14.9 mM OPA, 45.4 mM sodium sulfite and 4.5% ethanol in 327 mM borate buffer, pH 10.4). Samples were allowed to react at room temperature for a period of 10 min. After this time, 20 μl of each reaction mixture (including derivatizated calibration standards composed of known concentrations of GABA and BABA) were injected into the HPLC system. The HPLC system consisted of the following elements. The pump was an isocratic Spectra-Physics 8810. The column was a RP-18 (Spherisorb ODS-2; 150 mm, 4.6 mm, 5 μm particle size; Waters, Mass., USA). The mobile phase, previously filtered and degassed, consisted of 0.06 M sodium dihydrogen phosphate, 0.06 mM EDTA and 20-30% methanol (pH 4.4) and the flow rate was 0.8 ml/min. The effluent was monitored with a Metrohm bioanalytical system amperometric detector using a glassy carbon electrode. The potential was 0.85V relative to an Ag/AgCl reference electrode with a sensitivity of 50 nA (approx. 2 ng per sample). The signal was recorded on a Spectra-Physics 4290 integrator. The approximate retention times for GABA and BABA were 8 and 16 min, respectively. […] Values were expressed as μg/mg of protein.

[4] = tested on: rats with unilateral injections of malonate; assay: in situ hybridization of neuronal-specific enolase mRNA, malonate rat model; format: in vivo; conditions: FIG. 2, result in words; HU-308 5 mg/kg, CBD 5 mg/kg i.p.
Procedure: Animals were killed 46 hours after the second cannabinoid injection and their brains were rapidly removed and frozen in 2-methylbutane cooled in dry ice, and stored until evaluation of the degree of malonate-induced striatal injury. The protocol and results concerning the neurochemical evaluation of the neuronal injury and the effect of the various types of cannabinoids are reported in Example 2. The protocol and results concerning the effect of the various types of cannabinoids on the mRNA levels of neuron specific enolase are reported in Example 3.
(§6) Brain slicing. Coronal sections, 40 μm-thick, were cut in a cryostat, according to the Paxinos G. and Watson C. atlas (Rat brain in stereotaxic coordinates. Academic Press, London, 1986). Sections were thaw-mounted onto Superfrost Plus glass slides and dried briefly at 30° C. and stored at −80° C. until used.
Analysis of mRNA levels of NSE. Briefly, sections were fixed in 4% paraformaldehyde for 5 min and, after rinsing twice in PBS, were acetylated by incubation in 0.25% acetic anhydride, prepared in 0.1 M triethanolamine/0.15 M sodium chloride (pH 8.0), for 10 min. […]
(§7) The oligonucleotide probe was labeled at the 3′-end with [^35S]-dATP using terminal deoxynucleotidyl-transferase. […] The intensity of the hybridization signal was assessed by measuring the grey levels in the films with a computer-assisted video densitometer. […]

human CB1 receptors = human CB1 receptors (Homo sapiens, UniProt P21554); conditions: read-out: IC50 human CB1 receptors; as disclosed in WO 03/064359; cited from earlier work
[5] = tested on: rats with unilateral injections of malonate; assay: in situ hybridization of SOD-1 and SOD-2 mRNA, malonate rat model; format: in vivo; conditions: result in words, HU-308 5 mg/kg i.p.
Procedure: The protocol and results concerning possible sites of action are reported in Example 6.
as §6
Analysis of mRNA levels of NSE. Briefly, sections were fixed in 4% paraformaldehyde for 5 min and, after rinsing twice in PBS, were acetylated by incubation in 0.25% acetic anhydride, prepared in 0.1 M triethanolamine/0.15 M sodium chloride (pH 8.0), for 10 min. Sections were rinsed in 0.3 M sodium chloride/0.03 M sodium citrate, pH 7.0, dehydrated and delipidated by ethanol/chloroform series. For hybridization, the following synthetic probe of 45 nucleotides was used. […]
as §7
Superoxide dismutase-1 and -2 (SOD-1 and SOD-2) were used as markers of endogenous antioxidant defenses. Their relative levels in lesioned vs. non-lesioned areas of malonate injected rats were measured by in situ hybridization. […]

[6] = tested on: rats with unilateral lesions of the caudate-putamen generated by local application of malonate; conditions: Lastres-Becker et al., Neuroreport 14: 813-6, 2003; effects not dose-dependent; cited from earlier work
[7] = tested on: rats systemically exposed to 3-nitropropionic acid; conditions: Lastres-Becker et al., Neuroreport 15: 2375-9, 2004; cited from earlier work

Chain of human CB1 receptors (P21554 whole entry): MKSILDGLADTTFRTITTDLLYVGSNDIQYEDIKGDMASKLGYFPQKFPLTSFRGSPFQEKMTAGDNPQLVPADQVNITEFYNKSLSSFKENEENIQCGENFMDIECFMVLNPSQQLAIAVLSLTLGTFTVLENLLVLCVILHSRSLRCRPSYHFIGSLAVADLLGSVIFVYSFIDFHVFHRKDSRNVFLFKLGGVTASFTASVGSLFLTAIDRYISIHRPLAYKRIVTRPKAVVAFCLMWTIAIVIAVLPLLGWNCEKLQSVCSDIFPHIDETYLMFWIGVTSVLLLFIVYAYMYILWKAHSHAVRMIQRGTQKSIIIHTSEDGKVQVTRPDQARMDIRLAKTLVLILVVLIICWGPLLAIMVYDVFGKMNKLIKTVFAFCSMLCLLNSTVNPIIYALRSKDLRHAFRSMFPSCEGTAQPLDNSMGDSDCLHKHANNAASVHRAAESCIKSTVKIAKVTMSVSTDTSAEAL

Row | Molecule | DA contents Caudate-putamen [1] [%] | DOPAC contents Caudate-putamen [1] [%] | GABA contents Globus pallidus [3] [%] | GABA contents Substantia nigra [3] [%] | malonate-induced GABA loss in the striatum (caudate-putamen) [3] | mRNA levels for neuronal-specific enolase in the caudate-putamen [4] | neurochemical deficits induced by malonate in the caudate-putamen and other basal ganglia structures [3] | effect on malonate toxicity [6] | other results
1 | CCCCCCC(C)(C)c1cc(OC)c(C2C=C(CO)C3CC2C3(C)C)c(OC)c1 (single isomer, unassigned; (+)) [HU-308, (+){4-[4-(1,1-dimethylheptyl)-2,6-dimethoxyphenyl]-6,6-dimethyl-bicyclo[3.1.1]hept-2-en-2-yl}-methanol] | 34.1 ± 5.2 | 53.9 ± 5.7 | 90.1 ± 13.4 | 93.8 ± 7.7 | reduced malonate-induced GABA loss | partially prevented the malonate-induced reduction | – | – | cell death in the substantia nigra [2]: reduces the extent of cell death in the substantia nigra; GABA contents in the lesioned side ([3]; striatum, lesioned side, malonate + HU-308 5 mg/kg i.p.): 1.12±0.08 μg/mg of protein; GABA contents in the non-lesioned side ([3]; striatum, non-lesioned side, malonate + HU-308 5 mg/kg i.p.): 1.96±0.11 μg/mg of protein; IC50 (human CB1 receptors): 3.6 µM; mRNA levels for SOD-1 in the caudate-putamen ([5]; FIG. 5A): unable to prevent the malonate-induced decrease; mRNA levels for SOD-2 in the caudate-putamen ([5]; FIG. 5B): unable to prevent the malonate-induced decrease
2 | C=C(C)[C@@H]1CCC(C)=C[C@H]1c1c(O)cc(CCCCC)cc1O [CBD, cannabidiol] | 12.6 ± 4.9 | – | 54.4 ± 8.2 | 86.3 ± 8.6 | slightly reduce the GABA depletion | totally inactive | lack of neuroprotectant effects | – | –
3 | CCCCC/C=C\C/C=C\C/C=C\C/C=C\CCCC(=O)NCCCl [ACEA, arachidonyl-2-chloroethylamide] | 23.8 ± 5.4 | 44.9 ± 9.7 | 61.1 ± 12.2 | 92.1 ± 5.2 | – | – | did not influence neurochemical deficits | – | –
4 | CCCCCc1cc(O)c2c(c1)OC(C)(C)[C@@H]1CCC(C)=C[C@@H]21 [Δ^9-THC, Δ^9-tetrahydrocannabinol] | – | – | – | – | – | – | – | pro-toxic | neuroprotection in 3-nitropropionic acid rats [7]: neuroprotectant
5 | Cc1c(C(=O)NN2CCCCC2)nn(-c2ccc(Cl)cc2Cl)c1-c1ccc(Cl)cc1 [SR141716] | – | – | – | – | – | – | – | enhanced malonate toxicity | –
6 | SR144528 | – | – | – | – | – | – | – | – | effect of co-administration on the HU-308 reduction of malonate-induced GABA depletion in the caudate-putamen ([3]; FIG. 3, SR144528 1 mg/kg i.p. with HU-308 5 mg/kg i.p.): completely reversed
